Source: patent publication US20100196283A1, “METHOD AND IMAGING MEDIUM FOR USE IN THE METHOD” (priority 2007, published 2010)
Each block holds one compound with its values, some of them ahead of it.

Assays:
[1] = Liquid state polarisation by liquid state 13C-NMR at 400 MHz; assay type: physicochemical
Protocol: In a similar way, the level of polarisation for dissolved hyperpolarised ^13C-lactate may be determined by liquid state NMR measurements. Again the signal intensity of the dissolved hyperpolarised ^13C-lactate is compared with the signal intensity of the dissolved ^13C-lactate before polarisation. The level of polarisation is then calculated from the ratio of the signal intensities of ^13C-lactate before and after polarisation.
After 60 min dynamic nuclear polarisation, the frozen polarised composition obtained was dissolved in 6 ml phosphate buffer (20 mM, pH 7.4, 100 mg/l EDTA). The pH of the final solution containing the dissolved composition was 7.4±0.1. The sodium ^13C1-L-lactate concentration in said final solution was 60±2 mM.
Liquid state polarisation was determined by liquid state ^13C-NMR at 400 MHz to be 18-20%.
After an overnight dynamic nuclear polarisation, the frozen polarised composition obtained was dissolved in 6 ml phosphate buffer (40 mM, pH 7.3, osmolality match to 200 mM with NaCl, 100 mg/l EDTA, 1 eq. NaOH). The pH of the final solution containing the dissolved composition was 7.1. The D-lactate concentration in said final solution was 40 mM.
(§1) Liquid state polarisation was determined by liquid state ^13C-NMR at 400 MHz to be 14%. The liquid state relaxation (T1 at 9.4 T) was determined to 44 s.

[2] = Liquid state relaxation (T1 at 9.4 T); assay type: physicochemical; details: Example 5b
Protocol: as §1

[3] = T1 relaxation in human full blood at 37° C.; assay type: physicochemical
Description: The isotopic enrichment of the hyperpolarised ^13C-lactate used in the method of the invention is preferably at least 75%, more preferably at least 80% and especially preferably at least 90%, an isotopic enrichment of over 90% being most preferred. Ideally, the enrichment is 100%. ^13C-lactate used in the method of the invention may be isotopically enriched at the C1-position (in the following denoted ^13C1-lactate), at the C2-position (in the following denoted ^13C2-lactate), at the C3-position (in the following denoted ^13C3-lactate), at the C1- and the C2-position (in the following denoted ^13C1,2-lactate), at the C1- and the C3-position (in the following denoted ^13C1,3-lactate), at the C2- and the C3-position (in the following denoted ^13C2,3-lactate) or at the C1-, C2- and C3-position (in the following denoted ^13C1,2,3-lactate). Isotopic enrichment at the C1-position is the most preferred since ^13C1-lactate has a higher, i.e. longer T1 relaxation in human full blood at 37° C. than ^13C-lactate which is isotopically enriched at other C-positions.

mice (liver) = assay: In vivo 13C-MR spectroscopy in mice (liver); parameters: species or system C57Bl/6 mouse; details: liver surface coil; 200 μl of about 60 mM imaging medium; 9.4 T
Protocol: 200 μl of an imaging medium which was prepared as described in Example 1 was injected into a C57Bl/6 mouse over a time period of 6 s. The sodium ^13C1-lactate concentration in said imaging medium was about 60 mM. A surface coil (tuned for proton and carbon) was positioned over the liver of the animal and ^13C-MR spectroscopy was carried out in a 9.4 T magnet. A dynamic set of ^13C-MR spectra (in total 20) was acquired every 5 s with a 30 degree RF pulse. Again a significant amount of metabolism was seen including ^13C1-pyruvate (approximately 3% of the ^13C1-lactate signal), followed by ^13C1-alanine (approximately 3.5% of the ^13C1-lactate signal) at a later point of time (FIG. 3).

[4] = Solid state polarisation by solid state 13C-NMR after DNP; assay type: physicochemical
Description: The level of polarisation may for instance be determined by solid state ^13C-NMR measurements in solid hyperpolarised ^13C-lactate, e.g. solid hyperpolarised ^13C-lactate obtained by dynamic nuclear polarisation (DNP) of ^13C-lactate. The solid state ^13C-NMR measurement preferably consists of a simple pulse-acquire NMR sequence using a low flip angle. The signal intensity of the hyperpolarised ^13C-lactate in the NMR spectrum is compared with signal intensity of ^13C-lactate in a NMR spectrum acquired before the polarisation process. The level of polarisation is then calculated from the ratio of the signal intensities before and after polarisation.
The probe is inserted into the probe-retaining container, submerged in the liquid helium and irradiated with microwaves. The microwave frequency may be determined from the EPR line of the DNP agent, which depends on the magnetic field of the magnet as 28.0 GHz/T. The optimal microwave frequency may be determined by adjusting the frequency for maximal NMR signal. Preferably, the optimal microwave frequency is in the about 94 GHz for a magnet charged to 3.35 T, 110 GHz for a magnet charged to 4 T, 140 GHz for a magnet charged to 5 T and 200 GHz for a magnet charged to 7 T. The power may be chosen between 50 and 200 mW, dependent on the probe size. The level of polarisation may be monitored as earlier described by for instance acquiring solid state ^13C-NMR signals of the probe during microwave irradiation. Generally, a saturation curve is obtained in a graph showing NMR signal vs. time. […] A solid state ^13C-NMR measurement suitably consists of a simple pulse-acquire NMR sequence using a low flip angle. […] The polarisation is then calculated from the ratio of the signal intensities before and after DNP.
To a micro test tube was added sodium ^13C1-L-lactate solution (78.5 mg, Aldrich, 50% w/w sodium ^13C1-lactate). […] Polarisation was followed by solid state ^13C-NMR and the solid state polarisation was determined to be 20%.

mice (heart) = assay: In vivo 13C-MR spectroscopy in mice (heart); parameters: species or system C57Bl/6 mouse; details: heart surface coil; 200 μl of about 60 mM imaging medium; 9.4 T
Protocol: 200 μl of an imaging medium which was prepared as described in Example 1 was injected into a C57Bl/6 mouse over a time period of 6 s. The sodium ^13C1-lactate concentration in said imaging medium was about 60 mM and 2 animals were used in the experiment. A surface coil (tuned for proton and carbon) was positioned over the heart of the animal and ^13C-MR spectroscopy was carried out in a 9.4 T magnet. A dynamic set of ^13C-MR spectra (in total 20) was acquired every 5 s with a 30 degree RF pulse. Again a significant amount of metabolism was seen including ^13C1-pyruvate (approximately 2% of the ^13C1-lactate signal), followed by ^13C1-alanine at a later point of time. ^13C1-bicarbonate (approximately 0.5% of the ^13C1-lactate signal) was observable at a similar peak time as ^13C1-pyruvate (FIG. 5).

Hep-G2 cells = assay: In vitro 13C-MR spectroscopy in Hep-G2 cells; assay type: in vitro ADME
Protocol: An imaging medium was prepared as described in Example 1 and 25 μl of the imaging medium (2.7 mM sodium ^13C1-lactate) was mixed into 10 M Hep-G2 cells. A dynamic set of ^13C-MR spectra was acquired every 5 s with a 15 degree RF pulse. ^13C1-pyruvate was clearly building up over time. The average conversion was 0.3% with a peak conversion (0.4%) approximately 20 s into the experiment.

mice (whole body) = assay: In vivo 13C-MR spectroscopy in mice (whole body); parameters: species or system C57Bl/6 mouse
Protocol: 200 μl of an imaging medium which was prepared as described in Example 1 was injected into a C57Bl/6 mouse over a time period of 6 s. The sodium ^13C1-lactate concentration in said imaging medium was 60-90 mM and 3 animals were used in the experiment. A rat size whole body coil (tuned for proton and carbon) was placed over the animal and ^13C-MR spectroscopy was carried out in a 9.4 T magnet. A dynamic set of ^13C-MR spectra (in total 30) was acquired every 3 s with a 15 degree RF pulse. […] The following decay times were calculated from the MR spectra: ^13C1-pyruvate 23 s, ^13C1-alanine 33 s and ^13C1-bicarbonate 24 s.

[5] = 200 μl of 60-90 mM imaging medium injected over 6 s, 9.4 T

- liquid state polarisation ([1]; Example 5b, overnight DNP of D-lactic acid, dissolved in phosphate buffer with 1 eq. NaOH, 13C-NMR at 400 MHz): 14%
- liquid state relaxation (T1) [2]: 44 s
Structure (SMILES): C[C@@H](O)C(=O)O [D-lactate]

- T1 relaxation versus 13C-lactate enriched at other C-positions [3]: longer
Structure (SMILES): C[C@H](O)[13C](=O)O [^13C1-lactate]

- liquid state polarisation ([1]; Example 1b, after 60 min DNP, dissolved in 6 ml phosphate buffer pH 7.4, 13C-NMR at 400 MHz): 18-20%
- liquid state polarisation ([1]; Example 2, water/glycerol mixture (75:25), dissolved as in Example 1b): 15-20%
- liquid state polarisation ([1]; Example 3, water/glycerol mixture (50:50), dissolved as in Example 1b): 25%
- 13C1-alanine signal as % of the 13C1-lactate signal (mice (liver)): approximately 3.5%
- 13C1-bicarbonate levels observed (mice (liver)): very low levels
- 13C1-pyruvate signal as % of the 13C1-lactate signal (mice (liver)): approximately 3%
- solid state polarisation ([4]; Example 1a, aqueous trityl radical and Gd-chelate solutions, DNP at 1.2 K, 3.35 T, 94 GHz): 20%
- solid state polarisation ([4]; Example 2, water/glycerol mixture (75:25) for trityl and Gd-chelate solutions): 17-20%
- solid state polarisation ([4]; Example 3, water/glycerol mixture (50:50) for trityl and Gd-chelate solutions): 25%
- 13C1-bicarbonate signal as % of the 13C1-lactate signal (mice (heart)): approximately 0.5%
- 13C1-pyruvate signal as % of the 13C1-lactate signal (mice (heart)): approximately 2%
- peak conversion to 13C1-pyruvate (Hep-G2 cells; 25 μl imaging medium (2.7 mM sodium 13C1-lactate) mixed into 10 M Hep-G2 cells): 0.4%
- average conversion to 13C1-pyruvate (Hep-G2 cells; 25 μl imaging medium (2.7 mM sodium 13C1-lactate) mixed into 10 M Hep-G2 cells, spectra every 5 s): 0.3%
- time of peak conversion to 13C1-pyruvate (Hep-G2 cells; Hep-G2 cells, time into the experiment): approximately 20 s
- 13C1-alanine signal as % of the 13C1-lactate signal (mice (whole body); [5]): approximately 1.5%
- 13C1-bicarbonate signal as % of the 13C1-lactate signal (mice (whole body); [5]): approximately 0.5%
- 13C1-pyruvate signal as % of the 13C1-lactate signal (mice (whole body); [5]): approximately 2%
- decay time of 13C1-alanine signal (mice (whole body); calculated from the MR spectra): 33 s
- decay time of 13C1-bicarbonate signal (mice (whole body); calculated from the MR spectra): 24 s
- decay time of 13C1-pyruvate signal (mice (whole body); calculated from the MR spectra): 23 s
Structure (SMILES): C[C@H](O)[13C](=O)[O-].[Na+] [sodium ^13C1-L-lactate]
